Results published in patent US10117943B2, “Synthetic antibody mimetic compounds (SYAMS) targeting cancer, especially prostate cancer” (YALE UNIVERSITY, priority 2013, dated 2018).

Legend:
Type in all cases: cell-based
PSMA coated beads [1] = test: Molecule induced phagocytosis of PSMA coated beads by IFN-γ primed U937 cells; conditions: for Observed % Phagocytosis (50 nM SyAM-P2): beads; for phagocytosis of PSMA coated beads (comparison in words): compared with the previous generation SyAM-P
Experimental: (§1) Three days before the experiments, a plate of U937 cells (approximately 60% confluent) was passed into a new Petri dish (10 mL colored RPMI growth media total volume). IFN-γ (20 μL, 100 μg/mL in DPBS) was added, and the cells were maintained in an incubator (37° C., 24 h). The cells were pelleted after 24 hours and resuspended in 10 mL of IFN-γ (20 uL, 100 ug/mL in DPBS) and maintained in an incubator (37° C., 24 h)
For phagocytosis: cells were transferred into a Falcon tube, and DiD (19 uL, final concentration=1.9 μM) was added. The cells were maintained in an incubator (37° C., 30 min), pelleted, aspirated, resuspended in RPMI growth media (10 mL), and split equally into two Petri dishes. To each dish were added additional colored RPMI growth media (5 mL) and IFN-γ (20 μL, 100 μg/mL in DPBS), and maintained in an incubator (37° C., 24 h).
[…] streptavidin fluoresbrite YG microspheres from Polysciences were incubated with 4× concentration of avi-tagged PSMA for 30 minutes at room temperature in DPBS (concentration of avi-tagged PSMA is dependent on biotin loading capacity of microspheres). Beads were washed with DPBS 2× and resuspended in color-free ADCP media at 1.6 million beads/mL.
Phagocytosis: 25 uL of bead solution was added to 25 uL of ADCP media either with or without molecules at various concentrations in an eppendorf tube. To this 50 uL of 4 million/mL primed U937 cells were added, gently mixed and then centrifuged at […] for 2 minutes. The caps were opened and placed in an incubator (37° C., 1 hr) at which point the eppendorfs were closed and placed on ice. Samples were vortexed and run on an Accuri C6 flow cytometer for a total of 50 k counts.
Data analysis: For each experiment 50,000 events were counted. Forward and side scatter plots were optimally gated to remove debris particles and cellular aggregates. On a plot of FL-2 vs FL-4 the following populations were counted: […]

RM1.PGLS cells [2] = test: Phagocytosis of PSMA expressing RM1.PGLS cells by IFN-γ primed U937 cells; conditions: for phagocytosis of RM1.PGLS cells (in words): IFN-γ primed U937 effectors
Experimental: Target cell passing: Three days before the experiments, a plate of target cells, RM1.PGLS cells were passed into a new flask.
Effector cell priming: Three days before the experiments, a plate of U937 cells (approximately 60% confluent) was passed into a new Petri dish (10 mL colored ADCP media total volume). IFN-γ (20 μL, 100 μg/mL in DPBS) was added, and the cells were maintained in an incubator (37° C., 24 h). The cells were transferred into a Falcon tube, and DiD (19 uL, final concentration=1.9 μM) was added. The cells were maintained in an incubator (37° C., 30 min), pelleted, aspirated, resuspended in colored ADCP media (10 mL), and split equally into two Petri dishes. To each dish were added additional colored ADCP media (5 mL) and IFN-γ (20 μL, 100 μg/mL in DPBS), and the cells were maintained in an incubator (37° C., 24 h).
Target cell preparation: To a plate of target cells (60-80% confluent RM1.PGLS cells 10 mL total media volume) was added DiO (20 μL, final concentration=2 μM). The cells were maintained in an incubator (37° C., 30 min), aspirated, and washed with colored ADCP media (3×10 mL). Colored ADCP media (10 mL) was added. The cells were maintained in an incubator (37° C., 2 h), detached and resuspended in color-free ADCP media at a concentration of 0.5 million cells per mL.
Effector cell preparation: Both dishes of primed U937 cells were transferred into a Falcon tube, pelleted, aspirated, resuspended in color-free ADCP media (10 mL), counted, and diluted with color-free ADCP media to give a final concentration of 2 million cells per mL.
Phagocytosis: All conditions were run in triplicate. For each experiment, into a sterile 2 mL Eppendorf tube were added color-free ADCP media (25 μL) containing either various concentrations of SyAM-Px or ARM-P8/Anti-DNP antibody, target cells (25 μL=12,500 cells), and effector cells (50 μL=100,000 cells), to give an effector-to-target ratio of 8:1. Tubes were gently agitated by hand. The cells were pelleted (2 min, 1100 rpm). The tubes were opened, maintained in an incubator (37° C., 1 h), resuspended by briefly agitating with a vortex, and analyzed by flow cytometry.

RM1.PGLS cells [3] = test: Superoxide burst (lucigenin) by primed U937 cells against RM1.PGLS cells; conditions: IFN-γ primed U937 effectors
Text: Since SyAM-P1 was able to induce effector-cell mediated responses against target protein coated beads, the inventors then evaluated if the molecule can elicit the effects against PSMA expressing cells. To that end, the inventors evaluated the SyAM-P1 induced immune responses by primed U937 effector cells against PSMA expressing RM1.PGLS cells. They tested the U937-mediated immune effects by evaluating both superoxide burst and phagocytosis of effector cells, analogous to the protein coated bead experiments. In this experiment, IFN-γ primed U937 cells were incubated with PSMA expressing RM1.PGLS cells, and treated with various concentrations of SyAM-P1. The resulting superoxide burst response was measured using the lucigenin assay (data not shown). Additionally, primed U937 cells (stained with DiD, an FL4 membrane dye) were incubated with target RM1.PGLS cells (stained with […], an FL1 membrane dye), in the presence of various concentrations of SyAM-P 1. The resulting phagocytosis—indicated by FL1 and FL4 double positive cells—was measured using two-color flow-cytometry. As a positive control, ARM-P8 combined with anti-DNP antibodies was utilized. […] The positive response seen with the Arm-P8 control, could potentially be attributed to the ability of antibodies to ligate both FcγRI and FcγRIIA on the immune effector cells, increasing immune signaling and phagocytic responses.

PSMA coated beads [4] = test: ROS production (superoxide burst, lucigenin) by primed U937 cells against PSMA coated beads
Experimental: as §1
For ROS production cells were resuspended in RPMI growth media (10 mL), and split equally into two Petri dishes. To each dish were added additional colored RPMI growth media (5 mL) and IFN-γ (20 μL, 100 μg/mL in DPBS), and maintained in an incubator (37° C., 24 h)
Primed U937 were suspended in color-free ADCP media at a concentration of 3×10^5 U937 cells and mixed with 10^5 PSMA coated beads and various concentrations of molecules in a 96 well plate in a volume of 90 uL. To each well was added 10 μl of 2.5 mM lucigenin (Tokyo Chemicals) solution to bring the total volume to 100 μl. The plate was centrifuged at 200 rcf for 2 minutes (PLATE SPINNER). The chemiluminescence was then measured at two minute intervals by plate reader (Biotek Synergy 2) for 60 to 90 minutes.

| Structure (SMILES) | inhibition of SyAM-P3 induced phagocytosis of PSMA coated beads (PSMA coated beads [1]; 50 nM SyAM-P3, increasing inhibitor concentrations) | effect of inhibitor on SyAM-P1 induced immune effector responses (superoxide burst, phagocytosis of beads) (PSMA coated beads [1]; data not shown) | inhibition of SyAM-P3 induced phagocytosis of RM1.PGLS cells (RM1.PGLS cells [2]; 6.25 nM SyAM-P3, increasing inhibitor concentrations) | Observed % Phagocytosis (50 nM SyAM-P2) (PSMA coated beads [1]; labeling 2.9 pmol/bead, calculated 1972 PSMA/um^2) | Observed % Phagocytosis (50 nM SyAM-P2) (PSMA coated beads [1]; labeling 5.7 pmol/bead, calculated 3876 PSMA/um^2) | Observed % Phagocytosis (50 nM SyAM-P2) (PSMA coated beads [1]; labeling 8.2 pmol/bead, measured 5577 PSMA/um^2) | phagocytosis of PSMA coated beads (comparison in words) (PSMA coated beads [1]) | phagocytosis of RM1.PGLS cells (in words) (RM1.PGLS cells [2]) | Observed % Phagocytosis (50 nM SyAM-P2) (RM1.PGLS cells [2]; target RM1.PGLS cells, measured 918 PSMA/um^2, 50 nM) | superoxide burst against RM1.PGLS cells (in words) (RM1.PGLS cells [3]) | concentration of peak phagocytosis response (RM1.PGLS cells [2]; RM1.PGLS cells) | phagocytosis of RM1.PGLS cells compared with ArmP8 plus anti-DNP antibody (RM1.PGLS cells [2]; anti-DNP antibody 133 nM, background subtracted) | superoxide production without target PSMA+ beads (PSMA coated beads [4]; SyAM-P3 alone, various concentrations) | superoxide burst against PSMA coated beads (comparison in words) (PSMA coated beads [4]; compared with SyAM-P2) |
| --- | --- | --- | --- | --- | --- | --- | --- | --- | --- | --- | --- | --- | --- | --- |
| O=C(O)CCC(CP(=O)(O)O)C(=O)O (centres unmarked) [2-PMPA, reference compound] | inhibition of phagocytosis | abrogated | inhibition of phagocytosis |  |  |  |  |  |  |  |  |  |  |  |
| CC(=O)N[C@H](C(=O)N[C@@H](CC(N)=O)C(=O)N[C@@H](CO)C(=O)N[C@H]1CSSC[C@@H](C(=O)NCC(=O)N[C@@H](CC(=O)O)C(=O)N[C@@H](CC(=O)O)C(=O)N[C@@H](C)C(=O)N[C@@H](CCCCNC(=O)CCCCc2cn(-c3cc(C(=O)NCCCCCC(=O)NCCCCCC(=O)NCCCCCC(=O)NCCCCCC(=O)NCCCCCC(=O)NCCCCCC(=O)NCc4cn(CCCC[C@H](NC(=O)N[C@@H](CCC(=O)O)C(=O)O)C(=O)O)nn4)cc(C(=O)NCCCCCC(=O)NCCCCCC(=O)NCCCCCC(=O)NCCCCCC(=O)NCCCCCC(=O)NCCCCCC(=O)NCc4cn(CCCC[C@H](NC(=O)N[C@@H](CCC(=O)O)C(=O)O)C(=O)O)nn4)c3)nn2)C(=O)N[C@@H](CCCCNC(=O)CCCC[C@@H]2SC[C@@H]3NC(=O)N[C@@H]32)C(N)=O)NC(=O)CNC(=O)[C@H](CC(C)C)NC(=O)[C@H](CC(C)C)NC(=O)[C@H](CC(N)=O)NC(=O)[C@@H]2CCCN2C(=O)[C@H](CC(C)C)NC(=O)[C@H](CC(C)C)NC(=O)[C@H](CC(C)C)NC1=O)C(C)C [SyAM-P2] |  |  |  | 10.1% | 24.0% | 46.2% | much higher level of phagocytosis | no response | 0% | no response |  |  |  |  |
| CC(=O)N[C@H](C(=O)N[C@@H](CC(N)=O)C(=O)N[C@@H](CO)C(=O)N[C@H]1CSSC[C@@H](C(=O)NCC(=O)N[C@@H](CC(=O)O)C(=O)N[C@@H](CC(=O)O)C(=O)N[C@@H](CCCCNC(=O)CCCC(=O)NCCOCCOCCOCC(=O)NCCCC[C@H](NC(=O)COCCOCCOCCNC(=O)CCCC(=O)NCCCC[C@H](NC(=O)[C@H](CC(=O)O)NC(=O)[C@H](CC(=O)O)NC(=O)CNC(=O)[C@@H]2CSSC[C@H](NC(=O)[C@H](CO)NC(=O)[C@H](CC(N)=O)NC(=O)[C@@H](NC(C)=O)C(C)C)C(=O)N[C@@H](CC(C)C)C(=O)N[C@@H](CC(C)C)C(=O)N[C@@H](CC(C)C)C(=O)N3CCC[C@H]3C(=O)N[C@@H](CC(N)=O)C(=O)N[C@@H](CC(C)C)C(=O)N[C@@H](CC(C)C)C(=O)NCC(=O)N2)C(=O)N[C@@H](CCCCNC(=O)CCCC[C@@H]2SC[C@@H]3NC(=O)N[C@@H]32)C(N)=O)C(=O)NCc2cn(-c3cc(C(=O)NCCCCCC(=O)NCCCCCC(=O)NCCCCCC(=O)NCCCCCC(=O)NCCCCCC(=O)NCCCCCC(=O)NCc4cn(CCCC[C@H](NC(=O)N[C@@H](CCC(=O)O)C(=O)O)C(=O)O)nn4)cc(C(=O)NCCCCCC(=O)NCCCCCC(=O)NCCCCCC(=O)NCCCCCC(=O)NCCCCCC(=O)NCCCCCC(=O)NCc4cn(CCCC[C@H](NC(=O)N[C@@H](CCC(=O)O)C(=O)O)C(=O)O)nn4)c3)nn2)C(=O)N[C@@H](CCCCNC(=O)CCCC[C@@H]2SC[C@@H]3NC(=O)N[C@@H]32)C(N)=O)NC(=O)CNC(=O)[C@H](CC(C)C)NC(=O)[C@H](CC(C)C)NC(=O)[C@H](CC(N)=O)NC(=O)[C@@H]2CCCN2C(=O)[C@H](CC(C)C)NC(=O)[C@H](CC(C)C)NC(=O)[C@H](CC(C)C)NC1=O)C(C)C [SyAM-P3] |  |  |  |  |  |  | much greater immune response | effectively induce U937-mediated phagocytosis, in a dose dependent manner |  | No response | 10 nM | phagocytosis at significantly less concentration than for ArmP8 | little to no background superoxide detection | much greater immune response |
